According to patent publication US20120058989A1, “ANTIBACTERIAL FLUOROQUINOLONE ANALOGS” (Achaogen, Inc., priority 2008, published 2012):

Key:
Assay in all cases: MIC, CLSI broth microdilution
Assay type in all cases: cell-based
[1] = tested on: A. baumannii AABA1009 (Fluoroquinolone-resistant); conditions: Table 2
In short: (§1)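 CLSI M7-A7 broth microdilution in Mueller Hinton Broth using two-fold compound serial dilutions. Inoculum was prepared from the previous day's agar colonies at a final 5×10^5 CFU/mL. Plates were incubated at 35° C for 20 hours in ambient air.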

[2] = tested on: A. baumannii AABA1020 (Fluoroquinolone-resistant); conditions: Table 3
In short: as §1

[3] = tested on: A. baumannii AABA1065 (Fluoroquinolone-susceptible)
In short: as §1

[4] = tested on: E. coli AECO001 (Fluoroquinolone susceptible, ATCC25922)
In short: as §1

[5] = tested on: E. coli AECO002 (Fluoroquinolone susceptible); conditions: Table 3
In short: as §1

[6] = tested on: E. coli AECO066 (Fluoroquinolone-resistant)
In short: as §1

[7] = tested on: E. coli AECO086 (Fluoroquinolone-resistant); conditions: Table 3
In short: as §1

[8] = tested on: P. aeruginosa APAE001 (Fluoroquinolone-susceptible, ATCC27853)
In short: as §1

[9] = tested on: P. aeruginosa APAE002 (Fluoroquinolone susceptible); conditions: Table 3
In short: as §1

[10] = tested on: P. aeruginosa APAE054 (Fluoroquinolone-resistant)
In short: as §1

[11] = tested on: S. aureus ASAU001 (Fluoroquinolone-susceptible, ATCC29213)
In short: as §1

[12] = tested on: S. aureus ASAU002 (Fluoroquinolone-susceptible, ATCC33591 (MRSA)); conditions: Table 3
In short: as §1

[13] = tested on: S. aureus ASAU1031 (Fluoroquinolone-resistant)
In short: as §1

[14] = tested on: S. aureus ASAU1033 (Fluoroquinolone-resistant); conditions: Table 3
In short: as §1

[15] = tested on: S. pneumoniae ASPN001 (Fluoroquinolone-susceptible, ATCC49619)
In short: as §1

[16] = tested on: S. pneumoniae ASPN002 (Fluoroquinolone-susceptible, ATCC10813); conditions: Table 3
In short: as §1

[17] = tested on: S. pneumoniae ASPN1018 (Fluoroquinolone-resistant); conditions: Table 3
In short: as §1

[18] = tested on: S. pneumoniae ASPN1027 (Fluoroquinolone-resistant)
In short: as §1

| MIC AABA 1009 [1] | MIC AABA1020 [2] | MIC AABA 1065 ([3]; Table 2) | MIC AABA 1065 ([3]; Table 3) | MIC AECO 001 ([4]; Table 3) | MIC AECO002 [5] | MIC AECO 066 ([6]; Table 2) | MIC AECO 066 ([6]; Table 3) | MIC AECO086 [7] | MIC APAE 001 ([8]; Table 3) | MIC APAE002 [9] | MIC APAE 054 ([10]; Table 2) | MIC APAE 054 ([10]; Table 3) | MIC ASAU 001 ([11]; Table 2) | MIC ASAU 001 ([11]; Table 3) | MIC ASAU002 [12] | MIC ASAU 1031 ([13]; Table 3) | Compound | MIC AECO 001 ([4]; Table 2, 35° C., 20 hours) | MIC APAE 001 ([8]; Table 2) | MIC ASAU 1031 ([13]; Table 2) | also measured |
| --- | --- | --- | --- | --- | --- | --- | --- | --- | --- | --- | --- | --- | --- | --- | --- | --- | --- | --- | --- | --- | --- |
| C (MIC's of greater than 8.0 μg/mL = C) | D (MIC's of greater than 8.0 μg/mL = D) | C (MIC's of greater than 8.0 μg/mL = C) | D (MIC's of greater than 8.0 μg/mL = D) | C (MIC's of 2.0 μg/mL to 8.0 μg/mL = C) | D (MIC's of greater than 8.0 μg/mL = D) | C (MIC's of greater than 8.0 μg/mL = C) | D (MIC's of greater than 8.0 μg/mL = D) | D (MIC's of greater than 8.0 μg/mL = D) | D (MIC's of greater than 8.0 μg/mL = D) | D (MIC's of greater than 8.0 μg/mL = D) | C (MIC's of greater than 8.0 μg/mL = C) | D (MIC's of greater than 8.0 μg/mL = D) | C (MIC's of greater than 8.0 μg/mL = C) | D (MIC's of greater than 8.0 μg/mL = D) | C (MIC's of 2.0 μg/mL to 8.0 μg/mL = C) | D (MIC's of greater than 8.0 μg/mL = D) | NC1C[C@@H]2CC=Cc3c(c(F)cc4c(=O)c(C(=O)O)cn(C5CC5)c34)N2C1.O=C(O)C(F)(F)F (stereo partly drawn) [7E/50, (7aS,9)-9-Amino-4-cyclopropyl-12-fluoro-1-oxo-4,7,7a,8,9,10-hexahydro-1H-pyrrolo[1′,2′:1,7]-azepino[2,3-h]quinoline-2-carboxylic acid trifluoroacetate] | B (MIC's of greater than 1.0 μg/mL to 8.0 μg/mL = B) | C (MIC's of greater than 8.0 μg/mL = C) | C (MIC's of greater than 8.0 μg/mL = C) | MIC ASAU1033 [14]: D (MIC's of greater than 8.0 μg/mL = D); MIC ASPN 001 ([15]; Table 2): B (MIC's of greater than 1.0 μg/mL to 8.0 μg/mL = B); MIC ASPN 001 ([15]; Table 3): C (MIC's of 2.0 μg/mL to 8.0 μg/mL = C); MIC ASPN002 [16]: C (MIC's of 2.0 μg/mL to 8.0 μg/mL = C); MIC ASPN1018 [17]: C (MIC's of 2.0 μg/mL to 8.0 μg/mL = C); MIC ASPN 1027 ([18]; Table 2): B (MIC's of greater than 1.0 μg/mL to 8.0 μg/mL = B); MIC ASPN 1027 ([18]; Table 3): C (MIC's of 2.0 μg/mL to 8.0 μg/mL = C) |
| C (MIC's of greater than 8.0 μg/mL = C) | D (MIC's of greater than 8.0 μg/mL = D) | A (MIC's of 1.0 μg/mL or less = A) | A (MIC's of less than 1.0 = A) | A (MIC's of less than 1.0 = A) | A (MIC's of less than 1.0 = A) | C (MIC's of greater than 8.0 μg/mL = C) | D (MIC's of greater than 8.0 μg/mL = D) | D (MIC's of greater than 8.0 μg/mL = D) | B (MIC's of 1.0 μg/mL to 2.0 μg/mL = B) | A (MIC's of less than 1.0 = A) | C (MIC's of greater than 8.0 μg/mL = C) | D (MIC's of greater than 8.0 μg/mL = D) | A (MIC's of 1.0 μg/mL or less = A) | A (MIC's of less than 1.0 = A) | A (MIC's of less than 1.0 = A) | B (MIC's of 1.0 μg/mL to 2.0 μg/mL = B) | N[C@H]1CCN2c3c(F)cc4c(=O)c(C(=O)O)cn(C5CC5)c4c3CCC[C@H]12.O=C(O)C(F)(F)F [17/10, (7aR,8S)-8-Amino-4-cyclopropyl-12-fluoro-1-oxo-4,5,6,7,7a,8,9,10-octahydro-1H-pyrrolo[1′,2′:1,7]azepino-[2,3-h]quinoline-2-carboxylic acid trifluoroacetate] | A (MIC's of 1.0 μg/mL or less = A) | B (MIC's of greater than 1.0 μg/mL to 8.0 μg/mL = B) | B (MIC's of greater than 1.0 μg/mL to 8.0 μg/mL = B) | MIC ASAU1033 [14]: D (MIC's of greater than 8.0 μg/mL = D); MIC ASPN 001 ([15]; Table 2): A (MIC's of 1.0 μg/mL or less = A); MIC ASPN 001 ([15]; Table 3): A (MIC's of less than 1.0 = A); MIC ASPN002 [16]: A (MIC's of less than 1.0 = A); MIC ASPN1018 [17]: C (MIC's of 2.0 μg/mL to 8.0 μg/mL = C); MIC ASPN 1027 ([18]; Table 2): B (MIC's of greater than 1.0 μg/mL to 8.0 μg/mL = B); MIC ASPN 1027 ([18]; Table 3): B (MIC's of 1.0 μg/mL to 2.0 μg/mL = B) |
